From PubChem BioAssay (NCI)
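Interpolation was linear, between the two tested concentrations surrounding the appropriate level; five concentrations were tested over 48 hours in 96-well plates. GI50 = concentration required for 50% inhibition of growth. TGI denotes the concentration required for complete inhibition of growth.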

How the values were obtained:
Assay in all cases: growth of human tumour cells (NCI), 48 h
[1] = test system: RXF 393 renal
[2] = test system: 786-0 renal
[3] = test system: M14 melanoma
[4] = test system: A498 renal
[5] = test system: HS 578T breast
[6] = test system: NCI-H522 lung
[7] = test system: UACC-62 melanoma
[8] = test system: T-47D breast
[9] = test system: DU-145 prostate
[10] = test system: HCT-15 colon
[11] = test system: MOLT-4 leukemia
[12] = test system: K-562 leukemia
[13] = test system: HL-60(TB) leukemia
[14] = test system: EKVX NSCLC
[15] = test system: SNB-75 CNS
[16] = test system: UO-31 renal
[17] = test system: HOP-92 NSCLC
[18] = test system: HCC-2998 colon
[19] = test system: U251 CNS
[20] = test system: NCI/ADR-RES ovarian
[21] = test system: NCI-H23 lung
[22] = test system: UACC-257 melanoma
[23] = test system: SK-MEL-28 melanoma
[24] = test system: A549 NSCLC
[25] = test system: MDA-MB-435
[26] = test system: SF-539 CNS
[27] = test system: MCF7 breast
[28] = test system: COLO 205 colon
[29] = test system: SK-MEL-2 melanoma
[30] = test system: OVCAR-3 ovarian
[31] = test system: ACHN renal
[32] = test system: KM12 colon
[33] = test system: NCI-H226 lung
[34] = test system: BT-549 breast
[35] = test system: SNB-19 CNS
[36] = test system: OVCAR-5 ovarian
[37] = test system: OVCAR-4 ovarian
[38] = test system: SW-620 colon
[39] = test system: SF-268 CNS
[40] = test system: SK-MEL-5 melanoma
[41] = test system: SF-295 CNS
[42] = test system: HCT-116 colon
[43] = test system: MDA-MB-231 breast
[44] = test system: HT29 colon
[45] = test system: SN12C renal
[46] = test system: NCI-H460 lung
[47] = test system: SK-OV-3 ovarian
[48] = test system: CAKI-1 renal
[49] = test system: PC-3 prostate
[50] = test system: RPMI-8226 leukemia
[51] = test system: LOX IMVI melanoma
[52] = test system: OVCAR-8 ovarian
[53] = test system: MALME-3M melanoma
[54] = test system: HOP-62 NSCLC
[55] = test system: CCRF-CEM leukemia
[56] = test system: IGROV1 ovarian
[57] = test system: TK-10 renal

CC(=O)c1cccc(NC(=O)c2ccc(NC3=C(Cl)C(=O)N(Cc4ccccc4)C3=O)cc2)c1
GI50 [1]: 24 µM
TGI [1]: > 100 µM
GI50 [2]: 16.5 µM
TGI [2]: 36.4 µM
GI50 [3]: 17.1 µM
TGI [3]: 33.3 µM
GI50 [4]: 19.6 µM
TGI [4]: 60.4 µM
GI50 [5]: 22.6 µM
TGI [5]: 88.7 µM
GI50 [6]: 2.45 µM
TGI [6]: 19.4 µM
GI50 [7]: 13.8 µM
TGI [7]: 29.3 µM
GI50 [8]: 25.1 µM
TGI [8]: > 100 µM
GI50 [9]: 13.4 µM
TGI [9]: 34.2 µM
GI50 [10]: 16.8 µM
TGI [10]: 44.5 µM
GI50 [11]: 2.21 µM
TGI [11]: > 100 µM
GI50 [12]: 8.37 µM
TGI [12]: > 100 µM
GI50 [13]: 2.83 µM
TGI [13]: 17.2 µM
GI50 [14]: 30.3 µM
TGI [14]: 97.3 µM
GI50 [15]: 30.1 µM
TGI [15]: > 100 µM
GI50 [16]: 1.52 µM
TGI [16]: 3.12 µM
GI50 [17]: 6.45 µM
TGI [17]: 22.8 µM
GI50 [18]: 23.1 µM
TGI [18]: 41 µM
GI50 [19]: 17.9 µM
TGI [19]: 44.5 µM
GI50 [20]: 30.8 µM
TGI [20]: > 100 µM
GI50 [21]: 23 µM
TGI [21]: 43.7 µM
GI50 [22]: 18.7 µM
TGI [22]: 72.4 µM
GI50 [23]: 25.6 µM
TGI [23]: > 100 µM
GI50 [24]: 25.8 µM
TGI [24]: > 100 µM
GI50 [25]: 11.8 µM
TGI [25]: 30.1 µM
GI50 [26]: 11.4 µM
TGI [26]: 28.7 µM
GI50 [27]: 9.34 µM
TGI [27]: > 100 µM
GI50 [28]: 29.2 µM
TGI [28]: > 100 µM
GI50 [29]: 2.38 µM
TGI [29]: 11.5 µM
GI50 [30]: 9.57 µM
TGI [30]: 22.7 µM
GI50 [31]: 22.7 µM
TGI [31]: 49.1 µM
GI50 [32]: 20 µM
TGI [32]: 43 µM
GI50 [33]: 9.9 µM
TGI [33]: 28.1 µM
GI50 [34]: 8.8 µM
TGI [34]: 27.9 µM
GI50 [35]: 32.8 µM
TGI [35]: > 100 µM
GI50 [36]: > 100 µM
TGI [36]: > 100 µM
GI50 [37]: 24.9 µM
TGI [37]: 92.2 µM
GI50 [38]: 5.87 µM
TGI [38]: > 100 µM
GI50 [39]: 22.2 µM
TGI [39]: 98.9 µM
GI50 [40]: 12.5 µM
TGI [40]: 27.7 µM
GI50 [41]: 15.3 µM
TGI [41]: 47.8 µM
GI50 [42]: 12.6 µM
TGI [42]: 25.9 µM
GI50 [43]: 15 µM
TGI [43]: 38.3 µM
GI50 [44]: 27.3 µM
TGI [44]: > 100 µM
GI50 [45]: 1.92 µM
TGI [45]: 9.63 µM
GI50 [46]: 22.1 µM
TGI [46]: > 100 µM
GI50 [47]: > 100 µM
TGI [47]: > 100 µM
GI50 [48]: 1.61 µM
TGI [48]: 3.05 µM
GI50 [49]: 15.9 µM
TGI [49]: 36.4 µM
GI50 [50]: 3.31 µM
TGI [50]: 15.1 µM
GI50 [51]: 13.9 µM
TGI [51]: 33.8 µM
GI50 [52]: 14.3 µM
TGI [52]: 50.7 µM

CN(C)CCOc1ccc(-c2cc(-c3ccc4c(c3)CC/C4=N\O)c(-c3ccncc3)o2)cc1
GI50 [1]: 3.07 µM
TGI [1]: 6.78 µM
GI50 [2]: 3.55 µM
TGI [2]: 7.75 µM
GI50 [53]: 0.0245 µM
TGI [53]: 0.179 µM
GI50 [3]: 0.0653 µM
TGI [3]: 3.39 µM
GI50 [4]: 4.22 µM
TGI [4]: 8.17 µM
GI50 [5]: 4.59 µM
TGI [5]: 12.4 µM
GI50 [6]: 3.73 µM
TGI [6]: 8.02 µM
GI50 [7]: 0.0906 µM
TGI [7]: 3.79 µM
GI50 [8]: 4.66 µM
TGI [8]: 9.62 µM
GI50 [9]: 3.78 µM
TGI [9]: 7.38 µM
GI50 [10]: 3.35 µM
TGI [10]: 7.09 µM
GI50 [11]: 3.86 µM
TGI [11]: 10.3 µM
GI50 [12]: 0.668 µM
TGI [12]: 3.27 µM
GI50 [13]: 5.46 µM
TGI [13]: 10.8 µM
GI50 [14]: 3.93 µM
TGI [14]: 8.07 µM
GI50 [15]: 1.27 µM
TGI [15]: 6 µM
GI50 [16]: 5.21 µM
TGI [16]: 9.47 µM
GI50 [18]: 5.5 µM
TGI [18]: 9.5 µM
GI50 [19]: 2.41 µM
TGI [19]: 5.55 µM
GI50 [20]: 5.05 µM
TGI [20]: 11 µM
GI50 [21]: 3.21 µM
TGI [21]: 7.12 µM
GI50 [22]: 0.0945 µM
TGI [22]: 1.87 µM
GI50 [54]: 3.84 µM
TGI [54]: 7.92 µM
GI50 [23]: 0.111 µM
TGI [23]: 3.71 µM
GI50 [24]: 3.57 µM
TGI [24]: 7.06 µM
GI50 [25]: 0.156 µM
TGI [25]: 4.39 µM
GI50 [26]: 3.64 µM
TGI [26]: 7.41 µM
GI50 [27]: 5.02 µM
TGI [27]: 10.1 µM
GI50 [28]: 0.112 µM
TGI [28]: 4.35 µM
GI50 [29]: 0.281 µM
TGI [29]: 3.54 µM
GI50 [30]: 4.38 µM
TGI [30]: 8.16 µM
GI50 [31]: 3.62 µM
TGI [31]: 6.98 µM
GI50 [32]: 3.57 µM
TGI [32]: 7.28 µM
GI50 [33]: 4.78 µM
TGI [33]: 9.7 µM
GI50 [34]: 4.35 µM
TGI [34]: 8.03 µM
GI50 [35]: 4.68 µM
TGI [35]: 8.6 µM
GI50 [36]: 3.32 µM
TGI [36]: 6.79 µM
GI50 [37]: 5.16 µM
TGI [37]: 11.2 µM
GI50 [38]: 1.92 µM
TGI [38]: 5.45 µM
GI50 [39]: 4.72 µM
TGI [39]: 9.94 µM
GI50 [40]: 2.2 µM
TGI [40]: 5.86 µM
GI50 [41]: 3.8 µM
TGI [41]: 7.68 µM
GI50 [42]: 1.29 µM
TGI [42]: 4.5 µM
GI50 [43]: 3.34 µM
TGI [43]: 7.19 µM
GI50 [55]: 3.76 µM
TGI [55]: 13.3 µM
GI50 [44]: 0.451 µM
TGI [44]: 4.39 µM
GI50 [45]: 3.96 µM
TGI [45]: 7.73 µM
GI50 [46]: 1.1 µM
TGI [46]: 3.95 µM
GI50 [47]: 4.08 µM
TGI [47]: 7.51 µM
GI50 [48]: 4.19 µM
TGI [48]: 8.71 µM
GI50 [49]: 4.16 µM
TGI [49]: 8.22 µM
GI50 [50]: 4.28 µM
TGI [50]: 10.7 µM
GI50 [51]: 1.66 µM
TGI [51]: 5.63 µM
GI50 [56]: 4.7 µM
TGI [56]: 10.1 µM
GI50 [57]: 5.62 µM
TGI [57]: 9.79 µM
GI50 [52]: 3.97 µM
TGI [52]: 9 µM
